Assay results taken from US6696268B1, “Production and use of antimicrobial agents” (Pantherix, Ltd., priority 1998, dated 2004).

Assays:
[1] = test system: dihydrofolate reductase (DHFR); conditions: bacterial vs mammalian DHFR; competes with substrate dihydrofolate; cited from earlier work
E. coli PPAT = biological target: T1, E. coli PPAT (Escherichia coli, UniProt P0A6I6); experiment: Assay for inhibitors of E. coli PPAT (pyrophosphate-dependent cleavage of dephosphocoenzyme A, coupled spectrophotometric assay at 340 nm); assay type: biochemical; conditions: test compound at 0.05 mM, 25° C., compared with control without inhibitor
T1 construct: made in house; host or cells: E. coli (plasmid pUC/PPAT, pUC19 backbone)
Protocol: The activity of the PPAT enzyme was assayed by monitoring the pyrophosphate dependent cleavage of dephosphocoenzyme A which produced ATP and phosphopantetheine. The reaction contains in a final volume of 1 ml: 50 mM Tris-HCl containing 2 mM tetrasodium pyrophosphate, pH 8.0; 1 mM dithiothreitol; 1 mM NADP; 2 mM MgCl2; 5 mM glucose; 9 μg yeast hexokinase; and 7 μg yeast glucose 6-phosphate dehydrogenase. Reactions were monitored spectrophotometrically at 25° C. by following the increase in absorbance at 340 nm.
Inhibition studies were carried out using the reaction conditions described above. Test compounds were added to a final concentration of 0.05 mM, and the percentage inhibition determined by comparison with a control in which no test inhibitor is present.

T1 sequence (P0A6I6 whole entry): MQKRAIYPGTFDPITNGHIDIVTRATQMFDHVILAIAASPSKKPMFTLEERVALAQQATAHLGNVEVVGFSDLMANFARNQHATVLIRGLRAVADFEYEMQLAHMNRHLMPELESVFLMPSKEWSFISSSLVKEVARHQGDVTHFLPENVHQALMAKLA

For `COc1cc(Cc2cnc(N)nc2N)cc(OC)c1OC` [trimethoprim], the “bound more tightly by bacterial than mammalian forms of DHFR” value [1] is given as 50,000 fold.
Compound `O=C1CC(=O)c2ccc3c4c(ccc1c24)C(=O)CC3=O` [1,2,3,6,7,8-hexahydropyrene-1,3,6,8-tetraone] has an inhibition at 50 µM (E. coli PPAT) of about 60%.
